Test results as given in patent publication US11623919B2, “Heterocyclic P2X7 antagonists” (AXXAM S.P.A., priority 2017, dated 2023).

Columns and labels:
Assay in all cases: Screen Quest Fluo-8 No Wash Calcium Assay (Bz-ATP evoked Ca2+ influx, FLIPR)
Type in all cases: cell-based
[1] = biological target: T1, P2X7 receptor (Homo sapiens, UniProt Q99572); parameters: hP2X7 (IC50; nM); other: hP2X7; HEK-293 cells stably transfected with P2X7 receptor, Bz-ATP at EC80, Fluo-8 NW; potency; settings: hP2X7; HEK-293 cells stably transfected with P2X7 receptor, Bz-ATP at EC80, Fluo-8 NW; potency ranges A-D
T1 sequence (Q99572 1-595): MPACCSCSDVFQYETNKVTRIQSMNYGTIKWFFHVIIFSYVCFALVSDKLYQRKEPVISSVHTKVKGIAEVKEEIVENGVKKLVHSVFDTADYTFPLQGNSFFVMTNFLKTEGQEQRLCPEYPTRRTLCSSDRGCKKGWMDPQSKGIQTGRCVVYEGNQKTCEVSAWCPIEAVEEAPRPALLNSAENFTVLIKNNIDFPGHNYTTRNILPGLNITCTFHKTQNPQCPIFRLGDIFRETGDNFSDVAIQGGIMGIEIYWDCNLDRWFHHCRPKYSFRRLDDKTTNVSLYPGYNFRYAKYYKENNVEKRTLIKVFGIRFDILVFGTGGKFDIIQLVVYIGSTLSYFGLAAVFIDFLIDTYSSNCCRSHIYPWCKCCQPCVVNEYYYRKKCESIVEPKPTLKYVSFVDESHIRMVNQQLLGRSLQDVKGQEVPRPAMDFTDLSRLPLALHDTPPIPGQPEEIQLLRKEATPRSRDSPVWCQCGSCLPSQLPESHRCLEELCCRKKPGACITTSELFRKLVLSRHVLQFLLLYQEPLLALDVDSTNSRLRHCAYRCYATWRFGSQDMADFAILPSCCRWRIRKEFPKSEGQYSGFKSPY
Method in brief: (§1)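 HEK-293 cells stably expressing P2X7 were loaded with Fluo-8 NW for 1 h at RT, then given compound, and 5 min later Bz-ATP at EC80. Fluorescence was read by FLIPR in low divalent cation buffer (0.3 mM Ca2+, 0 mM Mg2+). IC50 came from percent inhibition relative to reference antagonist A438079.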

[2] = biological target: T2, P2X7 receptor (Rattus norvegicus, UniProt Q64663); settings: rP2X7; HEK-293 cells stably transfected with P2X7 receptor, Bz-ATP at EC80, Fluo-8 NW; potency ranges A-D
T2 construct: rP2X7 (IC50; nM); other: rP2X7; HEK-293 cells stably transfected with P2X7 receptor, Bz-ATP at EC80, Fluo-8 NW; potency
T2 sequence (Q64663 1-595): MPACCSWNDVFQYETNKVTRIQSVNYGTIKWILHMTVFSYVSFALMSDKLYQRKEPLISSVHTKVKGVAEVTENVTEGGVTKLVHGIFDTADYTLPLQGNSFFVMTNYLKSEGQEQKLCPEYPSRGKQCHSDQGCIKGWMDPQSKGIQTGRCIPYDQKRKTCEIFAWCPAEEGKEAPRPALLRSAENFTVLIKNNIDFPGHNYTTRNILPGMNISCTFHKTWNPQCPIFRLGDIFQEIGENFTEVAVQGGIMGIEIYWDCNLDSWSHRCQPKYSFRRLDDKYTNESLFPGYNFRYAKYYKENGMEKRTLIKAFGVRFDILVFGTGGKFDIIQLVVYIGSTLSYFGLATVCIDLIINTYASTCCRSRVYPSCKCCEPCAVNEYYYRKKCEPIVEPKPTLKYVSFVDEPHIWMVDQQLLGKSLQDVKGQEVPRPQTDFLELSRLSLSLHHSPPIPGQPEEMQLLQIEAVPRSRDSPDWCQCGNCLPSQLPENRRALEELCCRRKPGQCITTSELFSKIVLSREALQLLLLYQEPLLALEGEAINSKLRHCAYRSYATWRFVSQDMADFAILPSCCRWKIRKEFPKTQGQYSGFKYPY
Method in brief: as §1

[3] = biological target: T3, P2X7 receptor (Mus musculus, UniProt Q9Z1M0); settings: mP2X7; HEK-293 cells stably transfected with P2X7 receptor, Bz-ATP at EC80, Fluo-8 NW; potency ranges A-D
T3 construct: mP2X7 (IC50; nM); other: mP2X7; HEK-293 cells stably transfected with P2X7 receptor, Bz-ATP at EC80, Fluo-8 NW; potency
T3 sequence (Q9Z1M0 1-595): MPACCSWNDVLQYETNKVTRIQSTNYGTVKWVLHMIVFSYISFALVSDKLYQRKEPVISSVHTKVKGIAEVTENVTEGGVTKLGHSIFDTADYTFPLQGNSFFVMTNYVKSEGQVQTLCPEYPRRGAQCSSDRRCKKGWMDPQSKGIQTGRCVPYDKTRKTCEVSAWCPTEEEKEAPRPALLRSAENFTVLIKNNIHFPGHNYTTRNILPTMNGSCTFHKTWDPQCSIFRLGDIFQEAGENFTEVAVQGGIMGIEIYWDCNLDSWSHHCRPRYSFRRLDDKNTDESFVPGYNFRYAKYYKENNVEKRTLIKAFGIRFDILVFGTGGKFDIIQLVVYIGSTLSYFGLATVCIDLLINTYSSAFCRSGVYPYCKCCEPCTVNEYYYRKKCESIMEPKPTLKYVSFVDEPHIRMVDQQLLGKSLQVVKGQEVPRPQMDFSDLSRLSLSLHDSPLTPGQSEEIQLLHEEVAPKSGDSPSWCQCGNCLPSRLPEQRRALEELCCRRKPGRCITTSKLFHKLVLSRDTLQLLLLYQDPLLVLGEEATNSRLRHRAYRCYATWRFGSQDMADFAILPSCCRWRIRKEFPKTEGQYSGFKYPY
Method in brief: as §1

Row | Compound | IC50 [1] [nM] | IC50 [2] [nM] | IC50 [3] [nM]
1 | O=c1onc(CCc2c(F)cccc2Cl)n1CC1CCCCC1 [Example 146, 3-[2-(2-chloro-6-fluorophenyl)ethyl]-4-(cyclohexylmethyl)-1,2,4-oxadiazol-5(4H)-one] | 1000 to 10000 | 1000 to 10000 | > 10000
2 | O=c1onc(CCc2c(F)cccc2Cl)n1CC1CCC(F)(F)CC1 [Example 147, 3-[2-(2-chloro-6-fluorophenyl)ethyl]-4-[(4,4-difluorocyclohexyl)methyl]-1,2,4-oxadiazol-5(4H)-one] | 200 to 1000 | 200 to 1000 | 200 to 1000
3 | O=c1onc(Cc2cccc(F)c2)n1CC1CCC(F)(F)CC1 [Example 151, 4-[(4,4-difluorocyclohexyl)methyl]-3-[(3-fluorophenyl)methyl]-4,5-dihydro-1,2,4-oxadiazol-5-one] | 200 to 1000 | 200 to 1000 | 1000 to 10000
4 | O=c1onc(Cc2ccc(F)cc2)n1CC1CCC(F)(F)CC1 [Example 152, 4-[(4,4-difluorocyclohexyl)methyl]-3-[(4-fluorophenyl)methyl]-4,5-dihydro-1,2,4-oxadiazol-5-one] | 200 to 1000 | 200 to 1000 | 1000 to 10000
5 | O=c1onc(Cc2ccc(F)cc2F)n1CC1CCC(F)(F)CC1 [Example 153, 4-[(4,4-difluorocyclohexyl)methyl]-3-[(2,4-difluorophenyl)methyl]-4,5-dihydro-1,2,4-oxadiazol-5-one] | < 200 | < 200 | 200 to 1000
6 | COc1ccc(Cc2noc(=O)n2CC2CCC(F)(F)CC2)cc1 [Example 154, 4-[(4,4-difluorocyclohexyl)methyl]-3-[(4-methoxyphenyl)methyl]-4,5-dihydro-1,2,4-oxadiazol-5-one] | 1000 to 10000 | 1000 to 10000 | 1000 to 10000
7 | O=c1onc(Cc2cccc(C(F)(F)F)c2Cl)n1CC1CCC(F)(F)CC1 [Example 155, 3-{[2-chloro-3-(trifluoromethyl)phenyl]methyl}-4-[(4,4-difluorocyclohexyl)methyl]-4,5-dihydro-1,2,4-oxadiazol-5-one] | < 200 | 200 to 1000 | 200 to 1000
8 | COc1cccc(Cc2noc(=O)n2CC2CCC(F)(F)CC2)c1 [Example 160, 4-[(4,4-difluorocyclohexyl)methyl]-3-[(3-methoxyphenyl)methyl]-4,5-dihydro-1,2,4-oxadiazol-5-one] | 200 to 1000 | 200 to 1000 | 1000 to 10000
9 | O=c1onc(Cc2ccccc2)n1CC1CCC(F)(F)CC1 [Example 161, 3-benzyl-4-[(4,4-difluorocyclohexyl)methyl]-4,5-dihydro-1,2,4-oxadiazol-5-one] | 200 to 1000 | 200 to 1000 | 1000 to 10000
10 | CC(c1ccc(F)cc1)n1c(CC2CCCCC2)noc1=O (stereo not drawn) [Example 163, 3-(cyclohexylmethyl)-4-[1-(4-fluorophenyl)ethyl]-4,5-dihydro-1,2,4-oxadiazol-5-one] | 1000 to 10000 | 1000 to 10000 | 1000 to 10000
11 | CC(c1ccc(F)cc1)n1c(CC2CCC(F)(F)CC2)noc1=O (stereo not drawn) [Example 164, 3-[(4,4-difluorocyclohexyl)methyl]-4-[1-(4-fluorophenyl)ethyl]-4,5-dihydro-1,2,4-oxadiazol-5-one] | 1000 to 10000 | 1000 to 10000 | 1000 to 10000
12 | O=c1onc(CC2CCC(F)(F)CC2)n1Cc1ccccc1F [Example 165, 3-[(4,4-difluorocyclohexyl)methyl]-4-[(2-fluorophenyl)methyl]-4,5-dihydro-1,2,4-oxadiazol-5-one] | 200 to 1000 | < 200 | 200 to 1000
13 | O=c1onc(CC2CCC(F)(F)CC2)n1Cc1ccc(C(F)(F)F)cc1 [Example 166, 3-[(4,4-difluorocyclohexyl)methyl]-4-{[4-(trifluoromethyl)phenyl]methyl}-4,5-dihydro-1,2,4-oxadiazol-5-one] | 1000 to 10000 | 1000 to 10000 | 1000 to 10000
14 | O=c1onc(CC2CCC(F)(F)CC2)n1Cc1cccc(C(F)(F)F)c1Cl [Example 167, 4-{[2-chloro-3-(trifluoromethyl)phenyl]methyl}-3-[(4,4-dffluorocyclohexyl)methyl]-4,5-dihydro-1,2,4-oxadiazol-5-one] | > 10000 | 1000 to 10000 | 1000 to 10000
15 | O=c1onc(CC2CCC(F)(F)CC2)n1Cc1ccc(C(F)(F)F)o1 [Example 168, 3-[(4,4-difluorocyclohexyl)methyl]-4-{[5-(trifluoromethyl)furan-2-yl]methyl}-4,5-dihydro-1,2,4-oxadiazol-5-one] | 1000 to 10000 | 200 to 1000 | 200 to 1000

Second part, the molecule after the results:

Row | IC50 [1] [nM] | IC50 [2] [nM] | IC50 [3] [nM] | Compound
16 | 200 to 1000 | < 200 | 200 to 1000 | O=c1onc(Cc2ccccc2F)n1CC1CCC(F)(F)CC1 [Example 150, 4-[(4,4-difluorocyclohexyl)methyl]-3-[(2-fluorophenyl)methyl]-4,5-dihydro-1,2,4-oxadiazol-5-one]
17 | < 200 | < 200 | 200 to 1000 | O=c1onc(Cc2cccc(Cl)c2Cl)n1CC1CCC(F)(F)CC1 [Example 156, 3-[(2,3-dichlorophenyl)methyl]-4-[(4,4-difluorocyclohexyl)methyl]-4,5-dihydro-1,2,4-oxadiazol-5-one]
18 | < 200 | < 200 | 200 to 1000 | O=c1onc(Cc2ccccc2C(F)(F)F)n1CC1CCC(F)(F)CC1 [Example 157, 4-[(4,4-difluorocyclohexyl)methyl]-3-{[2-(trifluoromethyl)phenyl]methyl}-4,5-dihydro-1,2,4-oxadiazol-5-one]
19 | < 200 | < 200 | 200 to 1000 | O=c1onc(Cc2ccccc2Cl)n1CC1CCC(F)(F)CC1 [Example 158, 3-[(2-chlorophenyl)methyl]-4-[(4,4-difluorocyclohexyl)methyl]-4,5-dihydro-1,2,4-oxadiazol-5-one]
20 | < 200 | < 200 | 200 to 1000 | O=c1onc(Cc2ccc(Cl)cc2Cl)n1CC1CCC(F)(F)CC1 [Example 159, 3-[(2,4-dichlorophenyl)methyl]-4-[(4,4-difluorocyclohexyl)methyl]-4,5-dihydro-1,2,4-oxadiazol-5-one]
21 | > 10000 | > 10000 | > 10000 | O=c1onc(Cc2ccc(F)cc2Cl)n1CC1CCC(F)(F)CC1 [Example 162, 3-[(2-chloro-4-fluorophenyl)methyl]-4-[(4,4-difluorocyclohexyl)methyl]-4,5-dihydro-1,2,4-oxadiazol-5-one]
